Several values for one entry are separate records, joined by “and”; a condition that tells them apart may be missing. Equal values may be shown once.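 Compound exposure: 48 hours, 5 concentrations, 96-well plates. Here, GI50 denotes the concentration required for 50% inhibition of growth. The concentration for full growth arrest is given as TGI.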
Key:
Test in all cases: NCI-60 cell line screen, 48 h
M19-MEL melanoma = test system: M19-MEL melanoma
SNB-78 CNS = test system: SNB-78 CNS
KM20L2 colon = test system: KM20L2 colon
RXF-631 renal = test system: RXF-631 renal
BT-549 breast = test system: BT-549 breast
HS 578T breast = test system: HS 578T breast
MDA-MB-435 = test system: MDA-MB-435
MDA-N = test system: MDA-N

CN(C)CCNC(=O)c1cccc2ccc(-c3ccncc3)nc12
TGI (M19-MEL melanoma): 4.86 µM | TGI (SNB-78 CNS): > 100 µM

Cc1cc(N(CCC#N)CCC#N)ccc1/C=C1\N=C(c2cc([N+](=O)[O-])ccc2Cl)N(c2cccc(Cl)c2)C1=O
TGI (KM20L2 colon): > 100 µM | TGI (M19-MEL melanoma): > 100 µM | TGI (RXF-631 renal): > 100 µM | TGI (SNB-78 CNS): > 100 µM

CCCCCCCC(=O)OCC/C=C/C1OC1C1OC(=O)/C=C\C=C\c2nc(oc2C)/C=C(/C)CCC2OC2C1OC(=O)NC(C)=O (configuration not stated)
GI50 (BT-549 breast): 0.0466 µM | TGI (BT-549 breast): 0.168 µM | GI50 (HS 578T breast): 0.0776 µM | TGI (HS 578T breast): 0.221 µM

CC(C)(CO)N1CCN(C(=S)Nc2ccccc2)CC1
TGI (BT-549 breast): > 100 µM | TGI (HS 578T breast): > 100 µM | TGI (MDA-MB-435): > 100 µM | TGI (MDA-N): > 100 µM

COC1(OC)CC2OC1C1N=NN(C(=O)OC(C)(C)C)C21 (configuration not stated)
TGI (KM20L2 colon): > 100 µM | TGI (M19-MEL melanoma): > 100 µM | TGI (RXF-631 renal): > 100 µM | TGI (SNB-78 CNS): > 100 µM

CC/C=C\C[C@H](F)C/C=C1/C(=O)C=C[C@@H]1C/C=C\CCCC(=O)O
GI50 (BT-549 breast): 6.07 µM | TGI (BT-549 breast): 12.5 µM | GI50 (HS 578T breast): 13 µM | TGI (HS 578T breast): > 32.5 µM | GI50 (MDA-MB-435): 4.06 µM | TGI (MDA-MB-435): 11.3 µM

COc1ccc(-c2onc(N)c2-c2cc(OC)c3c(c2)OCO3)cc1
GI50 (BT-549 breast): 2.64 µM | TGI (BT-549 breast): > 100 µM | GI50 (HS 578T breast): 2.65 µM | TGI (HS 578T breast): > 100 µM | GI50 (MDA-MB-435): 0.29 µM | TGI (MDA-MB-435): 1.13 µM

Cc1ccc2c(c1)Sc1c(ccc3ccccc13)N2
GI50 (BT-549 breast): 28.5 µM | TGI (BT-549 breast): > 100 µM | GI50 (MDA-MB-435): > 100 µM | TGI (MDA-MB-435): > 100 µM

CC(C)(C)c1cc(CCC(=O)Nc2ccc(Cl)cc2)nc(NC#N)n1
TGI (KM20L2 colon): > 100 µM | TGI (M19-MEL melanoma): > 100 µM | TGI (SNB-78 CNS): > 100 µM

COCCCNC(=O)C1C(=O)C(=O)N(CCCOC)C1=O (configuration not stated)
TGI (KM20L2 colon): > 100 µM | TGI (M19-MEL melanoma): > 100 µM | TGI (RXF-631 renal): > 100 µM | TGI (SNB-78 CNS): > 100 µM

O=C1c2cccc([N+](=O)[O-])c2C(=O)N1c1ncn[nH]1
TGI (BT-549 breast): 90 µM | TGI (HS 578T breast): > 100 µM | TGI (MDA-MB-435): > 100 µM | TGI (MDA-N): > 100 µM

O=C(O)CCSC(=O)Nc1ccc([N+](=O)[O-])cc1
TGI (SNB-78 CNS): > 100 µM

O=C(CCc1nnc2sc(-c3ccc(Cl)cc3Cl)nn12)c1nc2ccccc2[nH]1
GI50 (BT-549 breast): 2.14 µM | TGI (BT-549 breast): 4.99 µM | GI50 (HS 578T breast): 2.23 µM | TGI (HS 578T breast): 8.29 µM | GI50 (MDA-MB-435): 0.382 µM | TGI (MDA-MB-435): 2.22 µM

O=C(CC1(O)C(=O)Nc2c(Cl)ccc(Cl)c21)c1ccc(F)cc1 (configuration not stated)
TGI (KM20L2 colon): > 100 µM | TGI (RXF-631 renal): > 100 µM | TGI (SNB-78 CNS): > 100 µM

CC/C=C\C[C@@H](O)C/C=C1/C(=O)C=C[C@H]1C/C=C\CCCC(=O)OC
GI50 (BT-549 breast): 2.94 µM | TGI (BT-549 breast): 8.81 µM | GI50 (HS 578T breast): 4.06 µM | TGI (HS 578T breast): 26.2 µM | GI50 (MDA-MB-435): 1.93 µM | TGI (MDA-MB-435): 5.86 µM

O=C(CCN(C(=O)O)S(=O)(=O)c1ccc(NC(=O)c2ccccc2)cc1)NC1CCCCC1
TGI (KM20L2 colon): > 100 µM | TGI (M19-MEL melanoma): > 100 µM | TGI (SNB-78 CNS): > 100 µM

CCOC1Oc2ccc(C)cc2C(=O)/C1=C\Nc1ccc(C(N)=O)cc1 (configuration not stated)
GI50 (BT-549 breast): 15.5 µM | TGI (BT-549 breast): 62.9 µM | GI50 (HS 578T breast): 22.8 µM | TGI (HS 578T breast): 64.4 µM | GI50 (MDA-MB-435): 20.1 µM | TGI (MDA-MB-435): 50.8 µM

COc1ccc2nc3c(C(=O)NCCN(C)C)cccc3nc2c1
TGI (M19-MEL melanoma): 22.2 µM | TGI (SNB-78 CNS): 72 µM

CCOC(=O)/C(C#N)=C/c1[nH]c(C(=O)OCc2ccccc2)c(C)c1C
TGI (KM20L2 colon): > 100 µM | TGI (M19-MEL melanoma): > 100 µM | TGI (RXF-631 renal): > 100 µM

O=C(Nc1ccncc1)C(=O)c1cn(S(=O)(=O)c2cccc(F)c2)c2ccccc12
GI50 (BT-549 breast): 2.29 µM | TGI (BT-549 breast): 86.8 µM | GI50 (HS 578T breast): 8.31 µM | TGI (HS 578T breast): > 100 µM | GI50 (MDA-MB-435): 0.385 µM | TGI (MDA-MB-435): 4.02 µM

O=C(N/C(=C\c1cccc([N+](=O)[O-])c1)c1nc2ccc([N+](=O)[O-])cc2[nH]1)c1ccccc1
TGI (KM20L2 colon): > 100 µM | TGI (M19-MEL melanoma): > 100 µM | TGI (RXF-631 renal): > 100 µM | TGI (SNB-78 CNS): > 100 µM

COc1ccc(N2C(=O)/C(=C/c3ccc(N(CCC#N)CCC#N)cc3C)N=C2c2cc([N+](=O)[O-])ccc2Cl)cc1
TGI (BT-549 breast): > 100 µM | TGI (HS 578T breast): 5.96 µM | TGI (KM20L2 colon): 7.39 µM | TGI (M19-MEL melanoma): > 100 µM | TGI (MDA-MB-435): 6.1 µM | TGI (MDA-N): 4.98 µM | TGI (SNB-78 CNS): > 100 µM

CC1CN1C(=O)NCCCCCCNC(=O)N1CC1C (configuration not stated)
TGI (BT-549 breast): > 100 µM | TGI (HS 578T breast): > 100 µM | TGI (KM20L2 colon): > 100 µM | TGI (M19-MEL melanoma): > 100 µM | TGI (MDA-MB-435): > 100 µM | TGI (MDA-N): > 100 µM

COc1ccc2c(c1)C(=O)c1c-2n(CCCn2ccnc2)c(=O)c2cc([N+](=O)[O-])ccc12
GI50 (BT-549 breast): < 0.0134 µM | TGI (BT-549 breast): 0.744 µM | GI50 (HS 578T breast): 2.1 µM | TGI (HS 578T breast): > 29 µM

CC[C@@]1(c2ccccc2)C2=C(CC(C)(C)CC2=O)Nc2[nH]ncc21
GI50 (BT-549 breast): > 100 µM | TGI (BT-549 breast): > 100 µM | GI50 (HS 578T breast): 96.4 µM | TGI (HS 578T breast): > 100 µM | GI50 (MDA-MB-435): > 100 µM | TGI (MDA-MB-435): > 100 µM

CCCC(=O)OCC1OC(n2cnc3c(=S)nc[nH]c32)C(OC(=O)CCC)C1OC(=O)CCC (configuration not stated)
GI50 (BT-549 breast): 14.3 µM | TGI (BT-549 breast): > 100 µM | GI50 (HS 578T breast): > 100 µM | TGI (HS 578T breast): > 100 µM | GI50 (MDA-MB-435): 3.55 µM | TGI (MDA-MB-435): > 100 µM

CCCC1N2CCCCC2[C@@H]2c3[nH]c4ccccc4c3CCN12 (some centres not stated)
TGI (KM20L2 colon): > 100 µM | TGI (M19-MEL melanoma): > 100 µM | TGI (SNB-78 CNS): > 100 µM

O=C(O)CCNC1CCCCC1
GI50 (BT-549 breast): > 100 µM | TGI (BT-549 breast): > 100 µM | GI50 (HS 578T breast): > 100 µM | TGI (HS 578T breast): > 100 µM | GI50 (MDA-MB-435): > 100 µM | TGI (MDA-MB-435): > 100 µM

N#CC(C#N)=C1Nc2ccccc2S1
GI50 (HS 578T breast): 34.1 µM | TGI (HS 578T breast): 85.9 µM | GI50 (MDA-MB-435): 30.3 µM | TGI (MDA-MB-435): > 100 µM

NC1=NC(c2ccccc2)CC(c2cc(Cl)ccc2O)=N1 (configuration not stated)
TGI (KM20L2 colon): 31.8 µM | TGI (M19-MEL melanoma): 29.5 µM | TGI (SNB-78 CNS): 42.1 µM

Cc1cc2c(cc1Cl)SC1=NN(C)S(=O)N1S2(=O)=O (configuration not stated)
GI50 (BT-549 breast): > 100 µM | TGI (BT-549 breast): > 100 µM | GI50 (HS 578T breast): > 100 µM | TGI (HS 578T breast): > 100 µM | GI50 (MDA-MB-435): > 100 µM | TGI (MDA-MB-435): > 100 µM

NC(=O)NS(=O)(=O)c1ccc(N2N=C(C(F)(F)F)CC2c2cc(C(F)(F)F)cc(C(F)(F)F)c2)cc1 (configuration not stated)
GI50 (BT-549 breast): 4.28 µM | TGI (BT-549 breast): 16.5 µM | GI50 (MDA-MB-435): 2.57 µM | TGI (MDA-MB-435): 7.16 µM

C[C@@H]1OC(=O)N2CCCC(=C3SCCCS3)C12 (some centres not stated)
TGI (KM20L2 colon): > 100 µM | TGI (M19-MEL melanoma): > 100 µM | TGI (SNB-78 CNS): > 100 µM

CC(=O)O[C@H]1C(=O)[C@@]2(C)C(C(OC(=O)c3ccccc3)[C@]3(O)CC(OC(=O)[C@H](OC(=O)CCC(=O)O)C(NC(=O)c4ccccc4)c4ccccc4)C(C)=C1C3(C)C)C1(OC(C)=O)COC1C[C@@H]2O (some centres not stated)
TGI (HS 578T breast): 3.1 µM and 1.57 µM | TGI (MDA-N): < 0.01 µM

CS(=O)(=O)c1ccc(-n2nc(C(F)(F)F)cc2OC2CCCC2)cc1
GI50 (BT-549 breast): 28.5 µM | TGI (BT-549 breast): 73 µM | GI50 (HS 578T breast): > 100 µM | TGI (HS 578T breast): > 100 µM | GI50 (MDA-MB-435): 59.6 µM | TGI (MDA-MB-435): > 100 µM

C=C(C[C@](O)(C(=O)/C=C/c1ccc(Cl)cc1)C(=O)OC)c1ccccc1
GI50 (BT-549 breast): 2.86 µM | TGI (BT-549 breast): 10.7 µM | GI50 (HS 578T breast): 4.11 µM | TGI (HS 578T breast): 34.6 µM | GI50 (MDA-MB-435): 1.95 µM | TGI (MDA-MB-435): 4.84 µM

Reference: PubChem BioAssay (NCI)
